{
  "source": "patent US20050288213A1",
  "about": "“Combination therapy for the treatment of obesity” (priority 2002, published 2005)",
  "key": {"[1]": {"system": "diet induced obese (DIO) mice", "experiment": "In vivo pair-feeding study with a NPY5 antagonist", "design": "species or system Male C57BL/6J mice", "procedure": "Compound A, is an orally active, selective NPY5 antagonist (Kanatani et al., 2000, Biochem. Biophys. Research Comm. 272:169-173). Male C57BL/6J mice (CLEA Japan Inc., 16 months old at the beginning of the drug administration) were used. Mice were given water and regular pellet chow (CE-2, CLEA Japan Inc.) ad libitum. They were kept in an animal room which was maintained at 23±2° C. temperature, 55±15% relative humidity and on a 12-hr light-dark cycle (7:00-19:00) during a quarantine and acclimatization period of 1 week.\nBefore the start of drug administration, mice were fed a MB diet (Oriental BioService Co., Tokyo, Japan) for about 9 to 10 months until the body weight gain reached plateau. After the body weight gain reached a plateau, the diet was change to a powder MHF diet. The powder MEW diet was given by powder feeder (small dishes). Diet and dishes were changed everyday, and daily food intake was measured. During this period, animals were orally administered vehicle (0.5% methylcellulose in distilled water) by gavage once-daily. After stable feeding was observed, the amount of new food was adjusted to daily food intake+0.3 g, to minimize the amount of spilled food. After the acclimation period, the MB diet-fed mice were divided into three groups to match average values of body weight (initial average body weight was 48 to 49 g). Each group was orally administered either vehicle or compound A at a dose of 100 mg/kg once-daily for 1 month, or vehicle by gavage. Food and body weight were measured. The administration was done one and half hours before the beginning of the dark period following the body weight measurement. Four days after drug administration, the pair-feeding was started. The pair-fed amount of food was calculated from the following equations: Average F.I. inhibition of drug treated group (%)=(average F.I. from control group−average F.I. from drug treated group)/average F.I. from control group×100 Pair fed amount of food for each animal=each animal's average F.I. from pre period×(1−average F.I. inhibition of drug treated group (%)) Pair fed mice were given a diet calculated from above inhibition and pre-average F.I. value. The amount of food was divided to two meals and given around at 8:00 and 18:00 to avoid a long duration of fasting. Rectal temperature was measured at 13:00-14:00 by insertion of thermo-probe in the rectum, at the 14, 22, 29, 34th day (10, 18, 25, 30th day for pair-fed group) after the start of treatment. Results"}, "[2]": {"system": "diet induced obese (DIO) mice", "experiment": "In vivo study of a combination of a NPY5 antagonist and food restriction", "design": "species or system Male C57BL/6J mice", "procedure": "Male C57BL/6J mice (CLEA Japan Inc., 14 months old at the beginning of the drug administration) were used. Mice were given water and a regular pellet chow (CE-2, CLEA Japan Inc.) ad libitum. They were kept in an animal room which was maintained at 23±2° C. temperature, 55±15% relative humidity and on a 12-hr light-dark cycle (7:00-19:00) during a quarantine and acclimatization period of 1 week. Before the start of drug administration, mice were fed a MHF diet (Oriental BioService Co., Tokyo, Japan) for about 9 to 10 months until the body weight gain reached a plateau. After the body weight gain reached a plateau, the diet was changed to a powder MHF diet. The powder MHF diet was given by powder feeder (small dishes). Diet and dishes were changed everyday, and the daily food intake was measured. During this period, animals were orally administered vehicle (0.5% methylcellulose in distilled water) by gavage twice-daily. After stable feeding was observed, the amount of new food was adjusted to daily food intake+0.3 g, to minimize the amount of spilled food. After the acclimation period, the […] mice were divided into four groups to match the average values of body weight (initial average body weight was 49 to 51 g) and food intake (n=7-10). Two of the groups were orally administered either vehicle or compound B at a dose of 30 mg/kg twice-daily for 1.5 months by gavage, respectively. Another two groups were treated with vehicle or compound B and given 90% of the average baseline food intake of the each mouse during the acclimation period (10% food restriction). The administration was done one and half hours before the beginning of the dark period following body weight measurement and one and half hours after the beginning of the light period. The amount of food was divided into two meals and given around at 8:00 and 18:00 to avoid a long duration of fasting. Food and body weight were measured."}},
  "note": "Entries after “also recorded” stand apart in the source; their conditions may differ.",
  "data": [
    {"smiles": "CC1(C)CC(=O)C(C2C3=C(CC(C)(C)CC3=O)Oc3ccccc32)C(=O)C1", "note": "(stereo not drawn) [Compound A]", "values": [
      {"measurement": "food consumed, less than untreated controls", "setting": "[1]; DIO mice chronically treated", "value": "about 10%"},
      {"measurement": "body weight", "setting": "[1]; DIO mice, 100 mg/kg once-daily P.O., 30 day treatment", "value": "significantly reduced body weight"},
      {"measurement": "food intake", "setting": "[1]; DIO mice, 100 mg/kg once-daily P.O., throughout the treatment period", "value": "mildly reduced food intake"},
      {"measurement": "rectal temperature", "setting": "[1]; DIO mice, 100 mg/kg once-daily P.O., compared with control and pair-fed group, 100 mg/kg", "value": "almost the same as that in the control group; also recorded: drop in body temperature was prevented"},
      {"measurement": "inhibition at 100 mg/kg", "setting": "[1]; Mus musculus, po, DIO mice, 100 mg/kg once-daily P.O., 1 month, read-out: Inhibitory percentage of cumulative food intake", "value": 12.5, "unit": "%"}
    ]},
    {"smiles": "O=C1OC2(CCN(C(=O)Nc3cnc(-c4ccccc4)cn3)CC2)c2ccccc21", "note": "[Compound B, 3-oxo-N-(5-phenyl-2-pyrazinyl)-spiro[isobenzofuran-1(3H),4′-piperidine]-1′-carboxamide]", "values": [
      {"measurement": "body weight, combination with 10% food restriction", "setting": "[2]; 30 mg/kg twice-daily P.O. plus 10% food restriction, compared with either treatment alone, 30 mg/kg", "value": "decreased weight than either treatment alone; also recorded: lose more weight than food restriction alone"},
      {"measurement": "food intake", "setting": "[2]; 30 mg/kg twice-daily P.O., throughout the treatment period", "value": "mildly reduced food intake"},
      {"measurement": "inhibition at 30 mg/kg", "setting": "[2]; Mus musculus, po, 30 mg/kg twice-daily P.O., 1.5 months, read-out: Inhibitory percentage of cumulative food intake", "value": 6, "unit": "%"},
      {"measurement": "body weight", "setting": "[2]; non food restricted, 30 mg/kg twice-daily P.O., 49 day treatment", "value": "significantly reduced body weight"}
    ]}
  ]
}
